Laboratory results published in paper PMC5478869, “New Hydroxycinnamic Acid Esters as Novel 5-Lipoxygenase Inhibitors That Affect Leukotriene Biosynthesis” (Mediators of Inflammation, 2017).

Target: T1, platelet 12-lipoxygenase (12-LO) (Homo sapiens, UniProt P18054)
T1 construct: endogenous in cells; host or cells: platelets isolated from platelet-rich plasma
T1 sequence (P18054 1-663): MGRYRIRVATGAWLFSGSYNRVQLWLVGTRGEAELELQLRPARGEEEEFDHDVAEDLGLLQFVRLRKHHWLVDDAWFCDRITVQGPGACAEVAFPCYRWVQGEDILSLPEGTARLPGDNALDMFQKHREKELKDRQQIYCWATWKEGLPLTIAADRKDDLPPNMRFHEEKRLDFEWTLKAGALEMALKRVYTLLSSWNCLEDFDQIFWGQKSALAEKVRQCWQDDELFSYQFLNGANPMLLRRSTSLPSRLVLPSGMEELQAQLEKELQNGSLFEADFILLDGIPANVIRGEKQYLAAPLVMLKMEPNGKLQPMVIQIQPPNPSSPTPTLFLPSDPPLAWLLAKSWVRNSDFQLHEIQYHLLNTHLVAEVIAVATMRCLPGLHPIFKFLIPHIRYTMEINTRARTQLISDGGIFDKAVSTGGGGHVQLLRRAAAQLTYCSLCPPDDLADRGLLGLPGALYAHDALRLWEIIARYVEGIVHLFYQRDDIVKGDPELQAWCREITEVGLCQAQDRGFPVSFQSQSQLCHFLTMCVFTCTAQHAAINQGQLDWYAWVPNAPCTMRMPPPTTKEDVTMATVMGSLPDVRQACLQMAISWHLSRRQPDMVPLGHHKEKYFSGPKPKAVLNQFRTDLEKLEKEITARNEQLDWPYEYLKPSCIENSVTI
Assay: Platelet activation (A23187), biosynthesis of 12-HETE
Assay type: cell-based
Conditions: 10 μM A23187 5 min
Protocol: Polymorphonuclear leukocytes (PMNL) were isolated as previously described. Briefly, whole blood was collected (with anticoagulant citrate dextrose (ACD)) and then centrifuged at 500 g for 10 min. Platelet-rich plasma (PRP) was set aside for platelet isolation (see below), and erythrocytes were removed by dextran sedimentation. After a centrifugation step at 900 g × 20 min at room temperature on a lymphocyte separation medium cushion (density, 1.077 g/ml) (Wisent), PMNL were obtained (>96%) followed by hypotonic lysis of the remaining erythrocytes. PMNL were counted and resuspended at 10^7 cells/ml in HBSS supplemented with 1.6 mM CaCl2. PRP was processed as previously described for platelet isolation. Briefly, PRP was centrifuged at 400 g for 2 min at room temperature to remove the remaining erythrocytes. The supernatant was then centrifuged at 1300g for 10 min to pellet platelets. Cells were resuspended in Tyrode Buffer pH 7.4 (134 mM NaCl, 2.9 mM KCl, 0.34 mM Na2HPO4, 12 mM NaHCO3, 20 mM HEPES, 1 mM MgCl2, 5 mM glucose, and 0.5 mg/ml BSA) at 3 × 10^8 cells/ml in the presence of 5 mM CaCl2.
Platelets (3 × 10^8 cells/ml) were preincubated with various test compounds at indicated concentrations for 5 min at 37°C. Platelet activation was initiated with the addition of 10 μM of calcium ionophore A23187 (Sigma-Aldrich) followed by a 5 min incubation time at 37°C. Reactions were stopped with the addition of two volumes of cold MeOH:MeCN (1 : 1) containing PGB2 (100 ng/ml) as internal standard. Samples were stored overnight at −20°C and were then centrifuged, the supernatant was dried under nitrogen, and the samples were resuspended in 30% methanol and analyzed by RP-HPLC as indicated above.
Figure 5 The inhibitory effects of the test compounds of the biosynthesis of 5-LO products in stimulated whole blood (a) and the biosynthesis of 12-lipoxygenase products in platelets (b). (a) Whole blood was incubated in presence of various compounds (1 μM and 5 μM) or with their diluent (control, DMSO 0.5%) for 5 min, then stimulated with opsonized zymosan (5 mg/ml) for 30 min at 37°C. Blood was then centrifuged and plasma was collected and added to 3.5 volumes of MeOH:CH3CN (1 : 1). Samples were processed for analysis by RP-HPLC for total 5-LO products quantification. Total 5-LO products measured represent the sum of LTB4, its trans isomers, 20-COOH and 20-OH-LTB4, and 5-hydroxyeicosatetraenoic acid. (b) Platelets were incubated for 5 min in presence of test compounds (1 μM and 3 μM) then biosynthesis of 12-HETE was initiated with the addition of 10 μM of calcium ionophore A23187. Reactions were stopped with the addition of two volumes of MeOH:MeCN (1 : 1 v/v). Samples were processed for analysis by RP-HPLC for 12-hydroxyeicosatetraenoic acid (12-HETE) quantification. ^∗Different from control as determined by one-way ANOVA with Dunnett's multiple comparison test (p < 0.05). Data are expressed as means ± SEM of at least 3 independent experiments.
Having identified compounds that inhibit the biosynthesis of lipid mediators generated via the 5-LO pathway, their ability to inhibit platelet 12-lipoxygenase (12-LO) was assessed to determine whether they show specificity.

Structure (SMILES)	Inhibition of biosynthesis of 12-HETE in platelets (3 μM compound)	Inhibition of biosynthesis of 12-HETE in platelets (1 μM compound)
O=C(/C=C/c1ccc(O)c(O)c1)OCCCc1ccccc1 [Compound 13]	near-complete inhibition	significantly inhibited the biosynthesis of 12-HETE
C=C(C)CCOC(=O)/C=C/c1ccc(O)c(O)c1 [Compound 9]	near-complete inhibition	significantly inhibited the biosynthesis of 12-HETE
O=C(/C=C/c1ccc(O)c(O)c1)OCC(c1ccccc1)c1ccccc1 [Compound 19]	significant inhibition	failed to significantly affect the biosynthesis of 12-HETE

Further lines, with some results ahead:

Inhibition of biosynthesis of 12-HETE in platelets (3 μM compound)	Structure (SMILES)	Inhibition of biosynthesis of 12-HETE in platelets (1 μM compound)
near-complete inhibition	Cc1ccc(CCOC(=O)/C=C/c2ccc(O)c(O)c2)cc1 [Compound 15]	significantly inhibited the biosynthesis of 12-HETE
near-complete inhibition	O=C(/C=C/c1ccc(O)c(O)c1)OCCc1ccccc1 [CAPE (2), Caffeic acid phenethyl ester, reference compound]	significantly inhibited the biosynthesis of 12-HETE
near-complete inhibition	O=C(/C=C/c1ccc(O)c(O)c1)OCCc1ccc(F)cc1 [Compound 14]	significantly inhibited the biosynthesis of 12-HETE
significant inhibition	COc1ccc(CCOC(=O)/C=C/c2ccc(O)c(O)c2)cc1 [Compound 16]	failed to significantly affect the biosynthesis of 12-HETE
